Tests used:
CD-3e+ T-cells = assay: Flow cytometry viability; assay type: cell-based, mouse; details: 4 hours; for sensitivity of T-cells (viability) compared to other cell populations: 15 nM to 100 μM
[1] = tested on: normal immune cells (splenocyte immune cell subpopulations); details: 15 nM to 100 μM, 4 hours

SMILES	sensitivity of T-cells (viability) compared to other cell populations (CD-3e+ T-cells)	toxicity to normal immune cells (viability) [1]	IC50 (viability) (CD-3e+ T-cells; T-cells, highest concentration of 100 μM, 36 strains)
Cn1c(=O)n(-c2ccc(C(C)(C)C#N)cc2)c2c3cc(-c4cnc5ccccc5c4)ccc3ncc21 [BEZ-235]	less sensitive and less variable	less toxic to normal immune cells than the anthracycline agents	
Cn1cnc2c(F)c(Nc3ccc(Br)cc3Cl)c(C(=O)NOCCO)cc21 [selumetinib]	less sensitive and less variable	less toxic to normal immune cells than the anthracycline agents	
COc1cccc2c1C(=O)c1c(O)c3c(c(O)c1C2=O)C[C@@](O)(C(=O)CO)C[C@@H]3O[C@H]1C[C@H](N)[C@H](O)[C@H](C)O1 [doxorubicin]	least sensitive		few strains reaching the IC50 at the highest concentration of 100 μM
CC(=O)[C@]1(O)Cc2c(O)c3c(c(O)c2[C@@H](O[C@H]2C[C@H](N)[C@H](O)[C@H](C)O2)C1)C(=O)c1ccccc1C3=O [idarubicin]	less sensitive than B-cells		
